{"source": "ChEMBL document CHEMBL3044945", "about": "“Synthesis of 1,3,5-trisubstituted pyrazoline nucleus containing compounds and screening for antimicrobial activity” (2012)", "format_in_all_cases": "functional", "key": {"[1]": {"tested_on": "Pseudomonas fluorescens", "test": "Antibacterial activity against Pseudomonas fluorescens MTCC 2421 at 750 ug/ml after 48 hr by cup-plate method", "conditions": "MTCC 2421, 48 h, read-out: DIZ"}, "[2]": {"tested_on": "Pseudomonas fluorescens", "test": "Antibacterial activity against Pseudomonas fluorescens MTCC 2421 at 500 ug/ml after 48 hr by cup-plate method", "conditions": "MTCC 2421, 48 h, read-out: DIZ"}, "[3]": {"tested_on": "Pseudomonas fluorescens", "test": "Antibacterial activity against Pseudomonas fluorescens MTCC 2421 at 250 ug/ml after 48 hr by cup-plate method", "conditions": "MTCC 2421, 48 h, read-out: DIZ"}, "[4]": {"tested_on": "Pseudomonas fluorescens", "test": "Antibacterial activity against Pseudomonas fluorescens MTCC 2421 at 100 ug/ml after 48 hr by cup-plate method", "conditions": "MTCC 2421, 48 h, read-out: DIZ"}, "[5]": {"tested_on": "Escherichia coli", "test": "Antibacterial activity against Escherichia coli MTCC 1573 at 1250 ug/ml after 48 hr by cup-plate method", "conditions": "MTCC 1573, 48 h, read-out: DIZ"}, "[6]": {"tested_on": "Escherichia coli", "test": "Antibacterial activity against Escherichia coli MTCC 1573 at 1000 ug/ml after 48 hr by cup-plate method", "conditions": "MTCC 1573, 48 h, read-out: DIZ"}, "[7]": {"tested_on": "Escherichia coli", "test": "Antibacterial activity against Escherichia coli MTCC 1573 at 750 ug/ml after 48 hr by cup-plate method", "conditions": "MTCC 1573, 48 h, read-out: DIZ"}, "[8]": {"tested_on": "Micrococcus luteus", "test": "Antibacterial activity against Micrococcus luteus MTCC 1538 at 1000 ug/ml after 48 hr by cup-plate method", "conditions": "MTCC 1538, 48 h, read-out: DIZ"}, "[9]": {"tested_on": "Micrococcus luteus", "test": "Antibacterial activity against Micrococcus luteus MTCC 1538 at 750 ug/ml after 48 hr by cup-plate method", "conditions": "MTCC 1538, 48 h, read-out: DIZ"}, "[10]": {"tested_on": "Escherichia coli", "test": "Antibacterial activity against Escherichia coli MTCC 1573 at 500 ug/ml after 48 hr by cup-plate method", "conditions": "MTCC 1573, 48 h, read-out: DIZ"}, "[11]": {"tested_on": "Escherichia coli", "test": "Antibacterial activity against Escherichia coli MTCC 1573 at 100 ug/ml after 48 hr by cup-plate method", "conditions": "MTCC 1573, 48 h, read-out: DIZ"}, "[12]": {"tested_on": "Escherichia coli", "test": "Antibacterial activity against Escherichia coli MTCC 1573 at 250 ug/ml after 48 hr by cup-plate method", "conditions": "MTCC 1573, 48 h, read-out: DIZ"}, "[13]": {"tested_on": "Micrococcus luteus", "test": "Antibacterial activity against Micrococcus luteus MTCC 1538 at 1250 ug/ml after 48 hr by cup-plate method", "conditions": "MTCC 1538, 48 h, read-out: DIZ"}, "[14]": {"tested_on": "Bacillus pumilus", "test": "Antibacterial activity against Bacillus pumilus MTCC 1456 at 1250 ug/ml after 48 hr by cup-plate method", "conditions": "MTCC 1456, 48 h, read-out: DIZ"}, "[15]": {"tested_on": "Bacillus pumilus", "test": "Antibacterial activity against Bacillus pumilus MTCC 1456 at 1000 ug/ml after 48 hr by cup-plate method", "conditions": "MTCC 1456, 48 h, read-out: DIZ"}, "[16]": {"tested_on": "Bacillus pumilus", "test": "Antibacterial activity against Bacillus pumilus MTCC 1456 at 750 ug/ml after 48 hr by cup-plate method", "conditions": "MTCC 1456, 48 h, read-out: DIZ"}, "[17]": {"tested_on": "Bacillus pumilus", "test": "Antibacterial activity against Bacillus pumilus MTCC 1456 at 500 ug/ml after 48 hr by cup-plate method", "conditions": "MTCC 1456, 48 h, read-out: DIZ"}, "[18]": {"tested_on": "Bacillus pumilus", "test": "Antibacterial activity against Bacillus pumilus MTCC 1456 at 250 ug/ml after 48 hr by cup-plate method", "conditions": "MTCC 1456, 48 h, read-out: DIZ"}, "[19]": {"tested_on": "Staphylococcus aureus", "test": "Antibacterial activity against Staphylococcus aureus MTCC 1430 at 1250 ug/ml after 48 hr by cup-plate method", "conditions": "MTCC 1430, 48 h, read-out: DIZ"}, "[20]": {"tested_on": "Staphylococcus aureus", "test": "Antibacterial activity against Staphylococcus aureus MTCC 1430 at 1000 ug/ml after 48 hr by cup-plate method", "conditions": "MTCC 1430, 48 h, read-out: DIZ"}, "[21]": {"tested_on": "Staphylococcus aureus", "test": "Antibacterial activity against Staphylococcus aureus MTCC 1430 at 750 ug/ml after 48 hr by cup-plate method", "conditions": "MTCC 1430, 48 h, read-out: DIZ"}, "[22]": {"tested_on": "Staphylococcus aureus", "test": "Antibacterial activity against Staphylococcus aureus MTCC 1430 at 500 ug/ml after 48 hr by cup-plate method", "conditions": "MTCC 1430, 48 h, read-out: DIZ"}, "[23]": {"tested_on": "Staphylococcus aureus", "test": "Antibacterial activity against Staphylococcus aureus MTCC 1430 at 250 ug/ml after 48 hr by cup-plate method", "conditions": "MTCC 1430, 48 h, read-out: DIZ"}, "[24]": {"tested_on": "Pseudomonas aeruginosa", "test": "Antibacterial activity against Pseudomonas aeruginosa MTCC 424 at 1250 ug/ml after 48 hr by cup-plate method", "conditions": "MTCC 424, 48 h, read-out: DIZ"}, "[25]": {"tested_on": "Pseudomonas aeruginosa", "test": "Antibacterial activity against Pseudomonas aeruginosa MTCC 424 at 1000 ug/ml after 48 hr by cup-plate method", "conditions": "MTCC 424, 48 h, read-out: DIZ"}, "[26]": {"tested_on": "Pseudomonas aeruginosa", "test": "Antibacterial activity against Pseudomonas aeruginosa MTCC 424 at 750 ug/ml after 48 hr by cup-plate method", "conditions": "MTCC 424, 48 h, read-out: DIZ"}, "[27]": {"tested_on": "Pseudomonas aeruginosa", "test": "Antibacterial activity against Pseudomonas aeruginosa MTCC 424 at 500 ug/ml after 48 hr by cup-plate method", "conditions": "MTCC 424, 48 h, read-out: DIZ"}, "[28]": {"tested_on": "Pseudomonas aeruginosa", "test": "Antibacterial activity against Pseudomonas aeruginosa MTCC 424 at 250 ug/ml after 48 hr by cup-plate method", "conditions": "MTCC 424, 48 h, read-out: DIZ"}, "[29]": {"tested_on": "Pseudomonas aeruginosa", "test": "Antibacterial activity against Pseudomonas aeruginosa MTCC 424 at 100 ug/ml after 48 hr by cup-plate method", "conditions": "MTCC 424, 48 h, read-out: DIZ"}}, "data": [{"smiles": "NC(=O)N1N=C(c2cccc3ccccc23)CC1c1ccc([N+](=O)[O-])cc1", "note": "(centres undefined)", "values": [{"measurement": "zone of inhibition at 750 µg/mL", "setting": "[1]", "value": 11, "unit": "mm"}, {"measurement": "zone of inhibition at 500 µg/mL", "setting": "[2]", "value": 10, "unit": "mm"}, {"measurement": "zone of inhibition at 250 µg/mL", "setting": "[3]", "value": 9, "unit": "mm"}, {"measurement": "zone of inhibition at 100 µg/mL", "setting": "[4]", "value": 8, "unit": "mm"}, {"measurement": "zone of inhibition at 1250 µg/mL", "setting": "[5]", "value": 15, "unit": "mm"}, {"measurement": "zone of inhibition at 1000 µg/mL", "setting": "[6]", "value": 13, "unit": "mm"}, {"measurement": "zone of inhibition at 750 µg/mL", "setting": "[7]", "value": 12, "unit": "mm"}, {"measurement": "zone of inhibition at 1000 µg/mL", "setting": "[8]", "value": 10, "unit": "mm"}, {"measurement": "zone of inhibition at 750 µg/mL", "setting": "[9]", "value": 9, "unit": "mm"}, {"measurement": "zone of inhibition at 500 µg/mL", "setting": "[10]", "value": 11, "unit": "mm"}, {"measurement": "zone of inhibition at 100 µg/mL", "setting": "[11]", "value": 9, "unit": "mm"}, {"measurement": "zone of inhibition at 250 µg/mL", "setting": "[12]", "value": 10, "unit": "mm"}, {"measurement": "zone of inhibition at 1250 µg/mL", "setting": "[13]", "value": 11, "unit": "mm"}, {"measurement": "zone of inhibition at 1250 µg/mL", "setting": "[14]", "value": 12, "unit": "mm"}, {"measurement": "zone of inhibition at 1000 µg/mL", "setting": "[15]", "value": 11, "unit": "mm"}, {"measurement": "zone of inhibition at 750 µg/mL", "setting": "[16]", "value": 10, "unit": "mm"}, {"measurement": "zone of inhibition at 500 µg/mL", "setting": "[17]", "value": 9, "unit": "mm"}, {"measurement": "zone of inhibition at 250 µg/mL", "setting": "[18]", "value": 8, "unit": "mm"}, {"measurement": "zone of inhibition at 1250 µg/mL", "setting": "[19]", "value": 14, "unit": "mm"}, {"measurement": "zone of inhibition at 1000 µg/mL", "setting": "[20]", "value": 12, "unit": "mm"}, {"measurement": "zone of inhibition at 750 µg/mL", "setting": "[21]", "value": 11, "unit": "mm"}, {"measurement": "zone of inhibition at 500 µg/mL", "setting": "[22]", "value": 10, "unit": "mm"}, {"measurement": "zone of inhibition at 250 µg/mL", "setting": "[23]", "value": 9, "unit": "mm"}, {"measurement": "zone of inhibition at 1250 µg/mL", "setting": "[24]", "value": 15, "unit": "mm"}, {"measurement": "zone of inhibition at 1000 µg/mL", "setting": "[25]", "value": 13, "unit": "mm"}, {"measurement": "zone of inhibition at 750 µg/mL", "setting": "[26]", "value": 12, "unit": "mm"}, {"measurement": "zone of inhibition at 500 µg/mL", "setting": "[27]", "value": 11, "unit": "mm"}, {"measurement": "zone of inhibition at 250 µg/mL", "setting": "[28]", "value": 10, "unit": "mm"}, {"measurement": "zone of inhibition at 100 µg/mL", "setting": "[29]", "value": 9, "unit": "mm"}]}]}
